According to ChEMBL document CHEMBL1132520, “Antimalarial activity of 3-hydroxyalkyl-2-methylene-propionic acid derivatives” (1999):
Active and inactive are the calls of the source. The rule behind the calls is not given here.

Key:
Mus musculus [1] = assay: In vivo anti-malarial activity against Plasmodium berghei in mice (Mus musculus) at a dose of 160 mg/kg; Active; format: functional, organism-based; set-up: dose 160 mg/kg
Mus musculus [2] = assay: Antimalarial activity against Plasmodium berghei evaluated in terms of mean survival time for mice (Mus musculus) at a dose of 160 mg/kg; format: functional
Mus musculus [3] = assay: Anti-malarial activity against Plasmodium berghei evaluated in terms of mean survival time for mice (Mus musculus) at a dose of 20 mg/kg; format: functional
Mus musculus [4] = assay: Antimalarial activity against Plasmodium berghei evaluated in terms of mean survival time for mice (Mus musculus) at a dose of 40 mg/kg; format: functional
Mus musculus [5] = assay: Antimalarial activity against Plasmodium berghei evaluated in terms of mean survival time for mice (Mus musculus) at a dose of 80 mg/kg; format: functional
Plasmodium falciparum [6] = assay: In vitro inhibition of chloroquine-resistant Plasmodium falciparum at 0.25 uM/well dose at 72 hrs in total parasite growth assay; format: functional
Plasmodium falciparum [7] = assay: In vitro inhibition of chloroquine-resistant Plasmodium falciparum at 0.5 uM/well dose at 72 hrs in total parasite growth assay; format: functional
Plasmodium falciparum [8] = assay: In vitro antimalarial activity for Plasmodium falciparum at 100 uM/well dose at 24 hrs in Schizont maturation assay; format: functional
Plasmodium falciparum [9] = assay: In vitro antimalarial activity for Plasmodium falciparum at 10 uM/well dose at 24 hrs in Schizont maturation assay; format: functional
Plasmodium falciparum [10] = assay: In vitro antimalarial activity for Plasmodium falciparum at 1 uM/well dose at 24 hrs in Schizont maturation assay; format: functional
Plasmodium falciparum [11] = assay: In vitro antimalarial activity for Plasmodium falciparum at 2.5 uM/well dose at 24 hrs in Schizont maturation assay; format: functional
Plasmodium falciparum [12] = assay: In vitro antimalarial activity for Plasmodium falciparum at 20 uM/well dose at 24 hrs in Schizont maturation assay; format: functional
Plasmodium falciparum [13] = assay: In vitro antimalarial activity for chloroquine-resistant Plasmodium falciparum at 50 uM/well dose at 24 hrs in Schizont maturation assay; format: functional
Plasmodium falciparum [14] = assay: In vitro antimalarial activity for chloroquine-resistant Plasmodium falciparum at 5 uM/well dose at 24 hrs in Schizont maturation assay; format: functional
Plasmodium falciparum [15] = assay: In vitro antimalarial activity for Plasmodium falciparum at 500 uM/well dose at 24 hrs in Schizont maturation assay; format: functional
Plasmodium falciparum [16] = assay: In vitro antimalarial activity for Plasmodium falciparum at 50 uM/well dose at 24 hrs in Schizont maturation assay; format: functional
Plasmodium falciparum [17] = assay: In vitro antimalarial activity for Plasmodium falciparum at 5 uM/well dose at 24 hrs in Schizont maturation assay; format: functional
Plasmodium falciparum [18] = assay: In vitro antimalarial activity for chloroquine-resistant Plasmodium falciparum at 0.25 uM/well dose at 24 hrs in Schizont maturation assay; format: functional
Plasmodium falciparum [19] = assay: In vitro antimalarial activity for chloroquine-resistant Plasmodium falciparum at 100 uM/well dose at 24 hrs in Schizont maturation assay; format: functional
Plasmodium falciparum [20] = assay: In vitro antimalarial activity for chloroquine-resistant Plasmodium falciparum at 10 uM/well dose at 24 hrs in Schizont maturation assay; format: functional
Plasmodium falciparum [21] = assay: In vitro antimalarial activity for chloroquine-resistant Plasmodium falciparum at 1 uM/well dose at 24 hrs in Schizont maturation assay; format: functional
Plasmodium falciparum [22] = assay: In vitro antimalarial activity for chloroquine-resistant Plasmodium falciparum at 2.5 uM/well dose at 24 hrs in Schizont maturation assay; format: functional
Plasmodium falciparum [23] = assay: In vitro antimalarial activity for chloroquine-resistant Plasmodium falciparum at 20 uM/well dose at 24 hrs in Schizont maturation assay; format: functional
Plasmodium falciparum [24] = assay: In vitro inhibition of Plasmodium falciparum at 50 uM/well dose at 72 hrs in total parasite growth assay; format: functional
Plasmodium falciparum [25] = assay: In vitro inhibition of Plasmodium falciparum at 5 uM/well dose at 72 hrs in total parasite growth assay; format: functional
Plasmodium falciparum [26] = assay: In vitro inhibition of Plasmodium falciparum at 0.25 uM/well dose at 72 hrs in total parasite growth assay; format: functional
Plasmodium falciparum [27] = assay: In vitro inhibition of Plasmodium falciparum at 0.5 uM/well dose at 72 hrs in total parasite growth assay; format: functional
Plasmodium falciparum [28] = assay: In vitro inhibition of Plasmodium falciparum at 2.5 uM/well dose at 72 hrs in total parasite growth assay; format: functional
Plasmodium falciparum [29] = assay: In vitro inhibition of Plasmodium falciparum at 20 uM/well dose at 72 hrs in total parasite growth assay; format: functional
Plasmodium falciparum [30] = assay: In vitro inhibition of Plasmodium falciparum at 25 uM/well dose at 72 hrs in total parasite growth assay; format: functional
Plasmodium falciparum [31] = assay: In vitro inhibition of Plasmodium falciparum at 1.0 uM/well dose at 72 hrs in total parasite growth assay; format: functional
Plasmodium falciparum [32] = assay: In vitro inhibition of Plasmodium falciparum at 100 uM/well dose at 72 hrs in total parasite growth assay; format: functional
Plasmodium falciparum [33] = assay: In vitro inhibition of Plasmodium falciparum at 10 uM/well dose at 72 hrs in total parasite growth assay; format: functional
Plasmodium falciparum [34] = assay: In vitro antimalarial activity for Plasmodium falciparum at 0.50 uM/well dose at 24 hrs in Schizont maturation assay; format: functional
Plasmodium falciparum [35] = assay: In vitro inhibition of chloroquine-resistant Plasmodium falciparum at 1.0 uM/well dose at 72 hrs in total parasite growth assay; format: functional
Plasmodium falciparum [36] = assay: In vitro antimalarial activity for Plasmodium falciparum at 0.10 uM/well dose at 24 hrs in Schizont maturation assay; format: functional
Plasmodium falciparum [37] = assay: In vitro antimalarial activity for chloroquine-resistant Plasmodium falciparum at 0.10 uM/well dose at 24 hrs in Schizont maturation assay; format: functional
Plasmodium falciparum [38] = assay: In vitro antimalarial activity for Plasmodium falciparum at 0.25 uM/well dose at 24 hrs in Schizont maturation assay; format: functional
Plasmodium falciparum [39] = assay: In vitro antimalarial activity for chloroquine-resistant Plasmodium falciparum at 0.5 uM/well dose at 24 hrs in Schizont maturation assay; format: functional
Mus musculus [40] = assay: In vivo antimalarial activity against Plasmodium berghei in mice (Mus musculus); Inactive; format: functional, organism-based

| SMILES | Mean survival time (Mus musculus [2]) [days] | Mean survival time (Mus musculus [3]) [days] | Mean survival time (Mus musculus [4]) [days] | Mean survival time (Mus musculus [5]) [days] | inhibition at 100 µM (Plasmodium falciparum [8]) [%] | inhibition at 10 µM (Plasmodium falciparum [9]) [%] | inhibition at 1 µM (Plasmodium falciparum [10]) [%] | inhibition at 500 µM (Plasmodium falciparum [15]) [%] | inhibition at 50 µM (Plasmodium falciparum [16]) [%] | inhibition at 5 µM (Plasmodium falciparum [17]) [%] | PGI (Plasmodium falciparum [25]) [%] | PGI (Plasmodium falciparum [27]) [%] | PGI (Plasmodium falciparum [28]) [%] | PGI (Plasmodium falciparum [30]) [%] | PGI (Plasmodium falciparum [31]) [%] | PGI (Plasmodium falciparum [32]) [%] | PGI (Plasmodium falciparum [33]) [%] | inhibition at 0.5 µM (Plasmodium falciparum [34]) [%] | inhibition at 0.1 µM (Plasmodium falciparum [36]) [%] | inhibition at 0.25 µM (Plasmodium falciparum [38]) [%] | also measured |
| --- | --- | --- | --- | --- | --- | --- | --- | --- | --- | --- | --- | --- | --- | --- | --- | --- | --- | --- | --- | --- | --- |
| C=C(C#N)C(O)c1cc(OC)c(OC)c(OC)c1 (stereo not drawn) | 12.4 | 6 | 7.6 | 10.4 | 100 | 100 | 64 | 100 | 100 | 82.4 | 100 | 86 | 100 | 100 | 94 | 100 | 100 | 42.4 | 0 | 30 | Activity (Mus musculus [1]): Active; PGI (Plasmodium falciparum [6]): 70%; PGI (Plasmodium falciparum [7]): 81%; inhibition at 2.5 µM (Plasmodium falciparum [11]): 76.5%; inhibition at 20 µM (Plasmodium falciparum [12]): 100%; inhibition at 50 µM (Plasmodium falciparum [13]): 100%; inhibition at 5 µM (Plasmodium falciparum [14]): 81%; inhibition at 0.25 µM (Plasmodium falciparum [18]): 30%; inhibition at 100 µM (Plasmodium falciparum [19]): 100%; inhibition at 10 µM (Plasmodium falciparum [20]): 100%; inhibition at 1 µM (Plasmodium falciparum [21]): 65%; inhibition at 2.5 µM (Plasmodium falciparum [22]): 69%; inhibition at 20 µM (Plasmodium falciparum [23]): 100%; PGI (Plasmodium falciparum [24]): 100%; PGI (Plasmodium falciparum [26]): 73%; PGI (Plasmodium falciparum [29]): 100%; PGI (Plasmodium falciparum [35]): 90%; inhibition at 0.1 µM (Plasmodium falciparum [37]): 4.2%; inhibition at 0.5 µM (Plasmodium falciparum [39]): 48.6% |
| C=C(C#N)C(O)/C=C(\C)CCC=C(C)C (stereo not drawn) | 11.6 | 7.3 | 8.6 | 9.8 | – | – | – | – | – | – | – | – | – | – | – | – | – | – | – | – | Activity (Mus musculus [40]): inactive |
| C=C(CCC(C)=O)C(C)=O | – | – | – | – | 100 | 100 | 52.6 | 100 | 100 | 100 | 88.6 | – | 65.7 | 100 | 8.6 | 100 | 100 | – | – | – | – |
| C=C(C(=O)OC)C(O)c1ccc([N+](=O)[O-])cc1 (stereo not drawn) | – | – | – | – | 81.6 | 44.7 | 2.6 | 100 | 52.6 | 18.4 | – | – | – | – | – | – | – | – | – | – | – |
| C=C(C#N)C(O)c1ccco1 (stereo not drawn) | – | – | – | – | – | – | – | – | – | – | 68.6 | 14 | 40 | 84 | 31.4 | 100 | 79 | – | – | – | – |
| C=C(C#N)C(O)c1ccc(OC)c(OC)c1 (stereo not drawn) | – | – | – | – | 100 | 42 | 5.26 | 100 | 71 | 21 | – | – | – | – | – | – | – | 0 | 0 | 0 | – |
